Reference: patent publication US20240285670A1, “THERAPEUTIC TREATMENT OF TUMORS BY BLOCKING THE HEME SYNTHESIS-EXPORT AXIS” (Università degli Studi di Torino, priority 2021, published 2024)

Test system: ALAS1
Assay: qRT-PCR analysis of ALAS1 expression in C80 cells
Assay type: cell-based, human
Settings: FLVCR1a-silenced vs scramble shRNA C80 cells
Experimental: (A) Heme content in Caco2 cells treated with 5 mM 5-ALA (black bars and white bars) or with 5 mM 5-ALA+0.5 mM SA (light grey outlined bars) for the indicated time points. […] Values are expressed as relative fluorescence intensity. Data represent mean±SEM, n=2. For statistical analyses, a two-way analysis of variance was used, followed by the Bonferroni correction for multiple group comparisons; **=p<0.01, ***=p<0.001. 5-ALA, 5-aminolevulinic acid; SA, succinylacetone. (B) Intracellular 5-ALA levels. […] Values are expressed as peak area/μg proteins. Data represent mean±SEM of n=4 wells pooled from two independent experiments. For statistical analyses, an unpaired Student's t-test was used; **=p<0.01. 5-ALA, 5-aminolevulinic acid. (C, D) Accumulation of ^13C2-5-ALA in cells incubated with U-^13C-glucose (C) or of ^13C3-5-ALA in cells incubated with U-^13C-glutamine (D) for the indicated time. […] Values are expressed as peak area/μg proteins. […] Transcript abundance, normalized to beta-actin mRNA expression, is expressed as a fold increase over a calibrator sample. […] Band intensities were measured by densitometry and normalized to vinculin expression. […]
RNA extraction and quantitative real-time PCR analyses were performed as described previously (Destefanis et al., 2019). […] Quantitative real-time PCR (qRT-PCR) was performed using the Universal Probe Library system (Roche, Basel, CH). […]

## FLVCR1a shRNA: shRNA specifically down-regulating FLVCR1a without targeting FLVCR1b; pLKO.1 lentiviral clone TRCN0000059599, antisense SEQ ID No.: 2 (antisense TTGCTAATGATGCTGTACTGG; sense CCAGTACAGCATCATTAGCAA)
  ALAS1 expression (qRT-PCR): reduced ALAS1 expression
